Experimental findings from patent publication US10259796B2, “Oxaspiro[2.5]octane derivatives and analogs” (Zafgen, Inc., priority 2011, dated 2019) are described below.

The nature of experiment [1]: Body weight % difference, diet-induced obese mice dosed PO once a day for 10 days with 3 mg/kg. The format is in vivo. As to conditions: diet-induced obese C57BL/6NTac mice.
The target in another experiment is T1, MetAP2 enzyme (Mus musculus, UniProt O08663).
T1 construct: from tissue; host or cells: testes of diet-induced obese C57BL/6NTac mice
T1 sequence (O08663 whole entry): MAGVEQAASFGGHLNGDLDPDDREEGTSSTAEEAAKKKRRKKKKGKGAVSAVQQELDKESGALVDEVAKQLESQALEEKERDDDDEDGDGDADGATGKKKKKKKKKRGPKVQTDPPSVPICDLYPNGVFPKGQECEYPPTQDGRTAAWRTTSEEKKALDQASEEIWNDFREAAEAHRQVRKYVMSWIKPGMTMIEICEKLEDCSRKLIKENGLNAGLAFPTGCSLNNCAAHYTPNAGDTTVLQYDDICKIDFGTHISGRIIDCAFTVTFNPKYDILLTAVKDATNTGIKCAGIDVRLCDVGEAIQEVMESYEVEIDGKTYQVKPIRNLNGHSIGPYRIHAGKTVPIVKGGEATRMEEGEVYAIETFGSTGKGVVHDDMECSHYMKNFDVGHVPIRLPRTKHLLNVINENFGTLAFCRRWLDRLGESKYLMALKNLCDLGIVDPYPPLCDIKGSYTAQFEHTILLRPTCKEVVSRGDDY
Kind of experiment: THX1 N-terminal peptide in mouse testes (MetAP2 inhibition in testes) after 10 days PO 3 mg/kg. The format is in vivo. The conditions noted are these: mice, PO once a day for 10 days, testes taken 24 hours after last dose. The procedure:
Diet-induced obese mice, C57BL/6NTac mice, were dosed PO once a day for 10 days with 3 mg/kg of compound 201 (fumagillin), 202, 203, 231 and 233. On day 11, 24 hours after the last dose the mice are sacrificed and the testes are dissected out and frozen. The frozen testes are subsequently homogenized and subjected to endoproteinase Glu-C digestion. The resulting digest mixture is analyzed by LC-MS/MS to quantitate the level of the N-terminal peptide of thioredoxin (Thrx), amino acid 1-6. Thioredoxin is a selective substrate of the MetAP2 enzyme and the degree of unprocessed thioredoxin (amino acid 1-6 rather than the processed des-Met thioredoxin amino acid 2-6) is indicative of the level of MetAP2 inhibition in a given tissue.

The next experiment deals with T2, recombinant human MetAP2 (Homo sapiens, UniProt P50579).
T2 construct: made in house; host or cells: High Five insect cells (Bac-to-Bac baculovirus)
T2 sequence (P50579 whole entry): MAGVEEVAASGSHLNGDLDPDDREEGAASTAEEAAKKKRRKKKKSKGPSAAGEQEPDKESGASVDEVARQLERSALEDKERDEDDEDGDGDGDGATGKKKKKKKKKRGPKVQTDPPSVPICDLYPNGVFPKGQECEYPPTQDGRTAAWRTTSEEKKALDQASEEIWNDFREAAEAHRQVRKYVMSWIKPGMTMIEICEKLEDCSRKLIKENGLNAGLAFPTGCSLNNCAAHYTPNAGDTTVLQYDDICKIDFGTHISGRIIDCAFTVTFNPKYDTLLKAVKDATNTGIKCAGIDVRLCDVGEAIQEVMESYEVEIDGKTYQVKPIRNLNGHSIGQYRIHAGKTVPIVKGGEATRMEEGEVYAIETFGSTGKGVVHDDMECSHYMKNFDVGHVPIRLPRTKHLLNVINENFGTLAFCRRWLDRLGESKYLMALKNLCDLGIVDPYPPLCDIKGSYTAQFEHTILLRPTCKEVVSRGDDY
Kind of experiment: MetAP2 enzyme assay (inhibition of recombinant MetAP2, Met-Gly-Met-Met substrate). The format is biochemical. The conditions noted are these: 50 nM. The procedure: Exemplary procedures for expression and purification of MetAP2 are shown in Griffith et al. (PNAS (1998) 95(26):15183-15188). Briefly, recombinant His-tagged human MetAP2 is expressed by using a Bac-to-Bac baculovirus expression system (GIBCO/BRL). Recombinant baculovirus stocks are generated and amplified as per the manufacturer's instructions. Protein is harvested 36 hr after baculovirus infection of two 15-cm plates of High Five cells.
The cell pellet are weighed and lysed (in 5 ml/g of wet pellet) in pre-chilled lysis buffer [buffer B+1% Nonidet P-40/1 mM phenymethylsulfonyl fluoride (PMSF)/2 μg/ml leupeptin/2 μg/ml aprotinin/1 μg/ml pepstatin]. The lysate is incubated on ice for 10 min and centrifuged at 10,000×g for 10 min. […] The Talon resin is pelleted by centrifugation at 1,200×g for 3 min and washed with 4×10 ml of buffer B. During the final wash, the resin is slurried into a Bio-Rad Econo column. The 6×His-tagged MetAP2 is eluted with 6 ml of 50 mM imidazole in buffer B, and 0.5 ml fractions are collected. The amount and purity of recombinant MetAP2 is analyzed by the absorbance at 280 nm and SDS/PAGE (10% gel). The fractions containing the highest amounts of MetAP2 are pooled and dialyzed against 3 liters of buffer B overnight before storage at 4° C.
An enzyme assay is performed in a 96-well format as described in Griffith et al. (PNAS (1998) 95(26):15183-15188). […] To begin the enzymatic reaction, Met-Gly-Met-Met is added to a final concentration of 4 mM and incubated at 37° C. The reaction is quenched after 20 min by adding EDTA to a concentration of 10 mM. Released methionine is quantitated as described in Ben-Bassat et al. (J Bacteriol (1987) 169:751-757).
IC50 values are calculated and compounds herein are determined to be active inhibitors of MetAP2, with some having nanomolar activities.

The nature of experiment [2]: Cell Based Assay (inhibition range).
A short description of experiment [3]: Mice weight loss, 7 day, 1 mg/kg/day oral gavage, diet-induced obese mice. The conditions noted are these: Mus musculus, 168 h, read-out: Mice Wt Loss 7 day % WL 1 mpk. The format is in vivo. The text has this:
Lean body mass is important to normal function in subjects. Substantial loss of lean body mass is not a desirable consequence of a therapy for an overweight or obese subject. A study is undertaken to analyze weight loss with respect to lean body mass.
Mice are divided into two groups, a diet-induced obese group and a lean group (control). For the diet-induced obese group, C57BL/6NTac mice maintained prior to and during the study on a diet containing 60% fat on a kilocalorie basis are further divided into two groups, fifteen mice per group. Average body weight of these diet-induced obese mice is 40 g at the start of the study. For the lean group, fifteen C57BLI6NTac mice are maintained on a diet containing 4.3% by weight fat prior to and during the study. Average body weight of these lean mice is 33 g at the start of the study. Daily food consumption is also recorded.
Compounds of the invention are administered to one of the diet-induced obese mice groups by oral gavage as a solution in 10% DMSO, at dose of 1 mg/kg/day, 7 days. The other diet-induced obese mice group and the lean mice group are not administered anything.

The mark [4] stands for this setting: 1 hr, read-out: MetAP2 Enzyme Assay 1 hr 50 nM.
[5] abbreviates: 2 hr, read-out: MetAP2 Enzyme Assay 2 hr 50 nM.
The mark [6] stands for this setting: 4 hr, read-out: MetAP2 Enzyme Assay 4 hr 50 nM.
Where [7] appears, read: diet-induced obese C57BL/6NTac mice, oral gavage, 1 mg/kg/day, 7 days.

SMILES strings stand for the structures. Like-named read-outs stand apart in the source and are kept apart here.

As for `CO[C@@H]1[C@H](OC(=O)/C=C/C=C/C=C/C=C/C(=O)O)CC[C@]2(CO2)[C@H]1[C@@]1(C)O[C@@H]1CC=C(C)C` [compound 201, fumagillin, reference compound], the “weight loss over 10 days of treatment” value in experiment [1] is reported as “robust weight loss”. Also, on MetAP2 enzyme, the “inhibition of the enzyme (MetAP2) in the testes, by THX1 N-terminal peptide” value (“inhibition of the enzyme (MetAP2)” for short) is recorded as “No inhibition”.
For `CCCCCCCCCCC(=O)O[C@@H]1CC[C@]2(CO2)[C@@H]([C@@]2(C)O[C@@H]2CC=C(C)C)[C@@H]1OC` [compound 216], in that order: “robust weight loss” and “No inhibition”.
Consider `COC(=O)CCCCCCCCC(=O)O[C@@H]1CC[C@]2(CO2)[C@@H]([C@@]2(C)O[C@@H]2CC=C(C)C)[C@@H]1OC` [compound 205], for which the “weight loss over 10 days of treatment” value in experiment [1] is given as “robust weight loss”. The “inhibition of the enzyme (MetAP2)” value against MetAP2 enzyme is “No inhibition”.
For the compound `CO[C@@H]1[C@H](OC(=O)CCCCCCCCC(=O)O)CC[C@]2(CO2)[C@H]1[C@@]1(C)O[C@@H]1CC=C(C)C` [Example 5], the figures for the inhibition at 0.05 µM at recombinant human MetAP2 (setting [4]), on recombinant human MetAP2 (setting [5]) and at recombinant human MetAP2 (setting [6]) were 15%, 30% and 50%, respectively. Also, in experiment [2] (cells printed in nM), the IC50 (commonly the midpoint of a concentration-inhibition curve) was below 10 nM. Further, the change in vivo at 1 mg/kg in experiment [3] (po) was found to be 9.5%.
As to `C=C1CC[C@]2(CO2)[C@@H]([C@@]2(C)O[C@@H]2CC=C(C)C)[C@@H]1OC` [Example 15], the inhibition at 0.05 µM on recombinant human MetAP2 (setting [4]) was 26%; at recombinant human MetAP2 (setting [5]), 32%; at recombinant human MetAP2 (setting [6]), 40%. Also, the IC50 in experiment [2] (in uM) was in the range of 100 to 1000 nM. Moreover, in experiment [3] (po), the change in vivo at 1 mg/kg was 7.9%.
With `CCCCCCCCCCC(=O)O[C@@H]1CC[C@]2(CO2)[C@@H]([C@@]2(C)O[C@@H]2CC=C(C)C)[C@@H]1OC` [Example 12], the figures for the inhibition at 0.05 µM on recombinant human MetAP2 (setting [4]), on recombinant human MetAP2 (setting [5]) and at recombinant human MetAP2 (setting [6]) were 0%, 5% and 29%, respectively. Further, the IC50 in experiment [2] (in uM) lay within 100 to 1000 nM. Further, the change in vivo at 1 mg/kg in experiment [3] (setting [7]) came out at 8.4%.
As for `COC(=O)CCCCCCCCC(=O)O[C@@H]1CC[C@]2(CO2)[C@@H]([C@@]2(C)O[C@@H]2CC=C(C)C)[C@@H]1OC` [Example 4], the inhibition at 0.05 µM at recombinant human MetAP2 (setting [4]) amounted to 46%; on recombinant human MetAP2 (setting [5]) it was 58%; on recombinant human MetAP2 (setting [6]), 94%. In experiment [2] (cells printed in nM), this compound registered an IC50 of 10 to 100 nM. Moreover, the change in vivo at 1 mg/kg in experiment [3] (setting [7]) was 12.5%.
As for `CO[C@@H]1[C@H](OC(=O)CCCCCCCCC(=O)O)CC[C@]2(CO2)[C@H]1[C@@]1(C)O[C@@H]1CC=C(C)C` [compound 206], the “weight loss over 10 days of treatment” value in experiment [1] is listed as “robust weight loss”. The “inhibition of the enzyme (MetAP2)” value at MetAP2 enzyme was “No inhibition”.
Regarding `CCCCCCCCCC=C1CC[C@]2(CO2)[C@@H]([C@@]2(C)O[C@@H]2CC=C(C)C)[C@@H]1OC` [Example 20], the inhibition at 0.05 µM on recombinant human MetAP2 (setting [4]), at recombinant human MetAP2 (setting [5]) and at recombinant human MetAP2 (setting [6]) was 0% each time. Besides, the IC50 in experiment [2] (in uM) is above 1000 nM. The change in vivo at 1 mg/kg in experiment [3] (po) is 0.4%.
On to `CO[C@@H]1[C@H](OC(=O)NCCC2CCCN2C)CC[C@]2(CO2)[C@H]1[C@@]1(C)O[C@@H]1CC=C(C)C` (some centres unmarked) [Example 29], for which, on recombinant human MetAP2 (setting [6]), the inhibition at 0.05 µM stood at 63%. In experiment [2] (cells printed in nM), this compound yielded an IC50 below 10 nM. Besides, the change in vivo at 1 mg/kg in experiment [3] (setting [7]) stood at 5.7%.
For `CO[C@@H]1[C@H](OC(=O)CCCCCCCCC(=O)O[C@@H]2CC[C@]3(CO3)[C@@H]([C@@]3(C)O[C@@H]3CC=C(C)C)[C@@H]2OC)CC[C@]2(CO2)[C@H]1[C@@]1(C)O[C@@H]1CC=C(C)C` [Example 27], the inhibition at 0.05 µM on recombinant human MetAP2 (setting [6]) turned out to be 48%. In addition, the IC50 in experiment [2] (cells printed in nM) was in the range of 10 to 100 nM. Moreover, the change in vivo at 1 mg/kg in experiment [3] (po) was found to be 4.4%.
With `CCCCCCCC/C=C\CCCCCCCC(=O)O[C@@H]1CC[C@]2(CO2)[C@@H]([C@@]2(C)O[C@@H]2CC=C(C)C)[C@@H]1OC` [Example 16], the inhibition at 0.05 µM at recombinant human MetAP2 (setting [4]), at recombinant human MetAP2 (setting [5]) and on recombinant human MetAP2 (setting [6]) was 0% each time. In experiment [2] (in uM), the IC50 is above 1000 nM. Besides, in experiment [3] (po), the change in vivo at 1 mg/kg is 5.4%.
For `CO[C@@H]1[C@H](OC(=O)CCCCCCCCC(=O)O)CC[C@]2(CO2)[C@H]1[C@@]1(C)O[C@@H]1CCC(C)C` [Example 9], the inhibition at 0.05 µM was 12% at recombinant human MetAP2 (setting [4]), 35% on recombinant human MetAP2 (setting [5]) and 50% on recombinant human MetAP2 (setting [6]). This compound also registered an IC50 in experiment [2] (in uM) of 100 to 1000 nM. In experiment [3] (setting [7]), the change in vivo at 1 mg/kg came out at 3.3%.
With `CO[C@@H]1C(=O)CC[C@]2(CO2)[C@H]1[C@@]1(C)O[C@@H]1CC=C(C)C` [Example 8, fumagillin ketone], the values for the inhibition at 0.05 µM on recombinant human MetAP2 (setting [4]), on recombinant human MetAP2 (setting [5]) and on recombinant human MetAP2 (setting [6]) were 46%, 65% and 93%, respectively. Besides, in experiment [2] (cells printed in nM), the IC50 is below 10 nM. Besides, in experiment [3] (po), the change in vivo at 1 mg/kg was 11.3%.
For `CCCC/C=C/C[C@H]1O[C@]1(C)[C@H]1[C@H](OC)C(=O)CC[C@]12CO2` [Example 25], in that order: 19%, 40%, 40%, 10 to 100 nM and 0.1%.
